Where two headings read alike, the source gives them in different places.
How the values were obtained:
human ETB receptor = target: T1, human ETB receptor (Homo sapiens, UniProt P24530); test: ERBA-B: [125I]-ET-1 binding, recombinant human ETB receptor expressed in CHO-K1 cells; conditions: human cloned ETB receptor, read-out: ERBA-B IC50, human cloned receptor data
T1 construct: expressed in transfected cells; host or cells: CHO-K1 cells, pRc-CMW (so in the source) expression vector, electroporation; membranes used
T1 sequence (P24530 27-442): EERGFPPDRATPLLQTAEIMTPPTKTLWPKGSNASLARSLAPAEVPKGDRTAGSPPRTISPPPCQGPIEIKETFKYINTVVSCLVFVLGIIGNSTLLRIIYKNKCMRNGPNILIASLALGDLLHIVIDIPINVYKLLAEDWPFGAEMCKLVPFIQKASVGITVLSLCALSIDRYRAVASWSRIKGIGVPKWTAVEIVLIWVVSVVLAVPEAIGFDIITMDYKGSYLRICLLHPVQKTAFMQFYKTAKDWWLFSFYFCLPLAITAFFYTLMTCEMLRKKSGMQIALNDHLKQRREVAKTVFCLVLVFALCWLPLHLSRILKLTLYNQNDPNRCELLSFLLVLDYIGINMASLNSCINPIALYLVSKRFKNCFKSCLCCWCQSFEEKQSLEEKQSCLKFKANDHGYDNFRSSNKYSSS
Procedure: Count filters for radioactivity in gamma counter.
The above process has also been modified by using human recombinant CHO-K1 cells.
The tissue used for human ETB was recombinant human ETB receptor expressed in CHO-K1 cells (chinese hamster ovary cells). The gene for human ETB receptor was cloned and inserted into the pRc-CMW expression vector, then transfected into CHO-K1 cells by electroporation. For binding assays, membranes (0.7 mg protein) of CHO-K1 cells expressing recombinant human ETB receptor were used.
^d Human cloned receptor data

ETA = target: T2, ETA (Oryctolagus cuniculus, UniProt A5A8K3)
T2 sequence (A5A8K3 21-427): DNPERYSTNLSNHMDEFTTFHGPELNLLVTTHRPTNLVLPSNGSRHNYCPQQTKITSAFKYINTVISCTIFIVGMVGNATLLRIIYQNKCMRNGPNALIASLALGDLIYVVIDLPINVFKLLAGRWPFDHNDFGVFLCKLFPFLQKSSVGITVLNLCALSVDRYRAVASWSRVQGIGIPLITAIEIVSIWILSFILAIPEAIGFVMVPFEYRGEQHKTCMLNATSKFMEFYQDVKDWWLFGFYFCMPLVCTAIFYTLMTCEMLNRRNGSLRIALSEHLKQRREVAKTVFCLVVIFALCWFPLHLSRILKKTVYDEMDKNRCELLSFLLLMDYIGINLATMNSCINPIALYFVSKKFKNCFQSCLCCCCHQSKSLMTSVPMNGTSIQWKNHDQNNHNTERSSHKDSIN

[1] = ERBA-A IC50, [125I]-ET-1, rabbit renal artery vascular smooth muscle cells
[2] = read-out: ERBA-A IC50, [125I]-ET-1, rabbit renal artery vascular smooth muscle cells

Compound `COc1ccc(C2(O)OC(=O)C(c3cc(OC)cc(OC)c3)=C2Cc2cccc(F)c2)cc1` (stereo not drawn) [Example 129, 3-(3,5-Dimethoxphenyl)-4-(3-fluorobenzyl)-5-hydroxy-5-(4-methoxyphenyl)-5H-furan-2-one] has an IC50 (human ETB receptor) of 2300 nM and an IC50 (ETA; [1]) of 72 nM.

`COc1ccc(C2(O)OC(=O)C(c3cc(OC)cc(OC)c3)=C2Cc2cc(Cl)cc(Cl)c2)cc1` (stereo not drawn) [Example 132, 4-(3,5-Dichlorobenzyl)-3-(3,5-dimethoxyphenyl)-5-hydroxy-5-(4-methoxyphenyl)-5H-furan-2-one] was tested, and the IC50 (human ETB receptor) was 2750 nM and the IC50 (ETA; [1]) was 70 nM.

`COc1ccc(C2(O)OC(=O)C(c3ccc4c(c3)OCO4)=C2Cc2cncc3ccccc23)cc1` (stereo not drawn) [Example 161, 3-Benzo[1,3]dioxol-5-yl-5-hydroxy-4-isoquinolin-4-ylmethyl-5-(4-methoxyphenyl)-5H-furan-2-one] showed an IC50 (human ETB receptor) of 3200 nM and an IC50 (ETA; [1]) of 40 nM.

In the case of `COc1ccc(C2(O)OC(=O)C(c3ccc4c(c3)OCO4)=C2Cc2ccc(-c3ccccc3)cc2)cc1` (stereo not drawn) [Example 162, 3-Benzo[1,3]dioxol-5-yl-4-biphenyl-4-ylmethyl-5-hydroxy-5-(4-methoxyphenyl) -5H-furan-2-one], the IC50 (human ETB receptor) is reported as 1900 nM and the IC50 (ETA; [1]) is reported as 390 nM.

For `COc1ccc(C(=O)/C(Cc2ccc(OC)c(C)c2)=C(\C(=O)O)c2ccc3c(c2)OCO3)cc1` [Example 172, 2-Butenoic acid, 2-(1,3-benzodioxol-5-yl)-3-[(4-methoxy-3-methylphenyl)methyl]-4-(4-methoxyphenyl)-4-oxo-, (Z)-, ion(1-) compd. with 2-hydroxy-N,N,N-trimethylethanaminium (1:1)], the IC50 (human ETB receptor) was greater than 2500 nM and the IC50 (ETA; [2]) was 7200 nM.

`CC(C)Oc1ccc(C2(O)OC(=O)C(c3ccc4c(c3)OCO4)=C2Cc2ccccc2)cc1` (stereo not drawn) [Example 204, 3-Benzo[1,3]dioxol-5-yl-4-benzyl-5-hydroxy-5-(4-isopropoxyphenyl)-5H-furan-2-one] was tested, and the IC50 (human ETB receptor) was 10000 nM and the IC50 (ETA; [1]) was 1050 nM.

`O=C1OC(O)(c2ccc(OCc3ccccc3)cc2)C(Cc2ccccc2)=C1c1ccc2c(c1)OCO2` (stereo not drawn) [Example 208, 3-Benzo[1,3]dioxol-5-yl-4-benzyl-5-(4-benzyloxyphenyl)-5-hydroxy-5H-furan-2-one] gave an IC50 (human ETB receptor) of 5400 nM and an IC50 (ETA; [1]) of 1200 nM.

With `O=C1OC(O)(c2cccc(Cl)c2)C(Cc2ccccc2)=C1c1ccc2c(c1)OCO2` (stereo not drawn) [Example 235, 3-Benzo[1,3]dioxol-5-yl-4-benzyl-5-(3-chlorophenyl)-5-hydroxy-5H-furan-2-one] the IC50 (human ETB receptor) was greater than 2500 nM and the IC50 (ETA; [1]) was 670 nM.

Compound `O=C1OC(O)(c2ccc3c(c2)OCO3)C(Cc2ccccc2)=C1c1ccc2c(c1)OCO2` (stereo not drawn) [Example 245, 3,5-Bis-benzo[1,3]dioxol-5-yl-4-benzyl-5-hydroxy-5H-furan-2-one] has an IC50 (human ETB receptor) of 2000 nM and an IC50 (ETA; [1]) of 110 nM.

`COc1ccc(C2(O)OC(=O)C(c3ccc4c(c3)OCO4)=C2Cc2cc(C)c(OC)cc2C)cc1` (stereo not drawn) [Example 251, 3-Benzo[1,3]dioxol-5-yl-5-hydroxy-4-(4-methoxy-2,5-dimethylbenzyl)-5-(4-methoxyphenyl)-5H-furan-2-one] was tested, and the IC50 (human ETB receptor) was greater than 2500 nM and the IC50 (ETA; [1]) was 6 nM.

`C=CCOc1cc(CC2=C(c3ccc4c(c3)OCO4)C(=O)OC2(O)c2ccc(OC)cc2OC)ccc1OC` (stereo not drawn) [Example 255, 4-(3-Allyloxy-4-methoxybenzyl)-3-benzo[1,3]dioxol-5-yl-5-(2,4-dimethoxyphenyl)-5-hydroxy-5H-furan-2-one] was tested, and the IC50 (human ETB receptor) was 1400 nM and the IC50 (ETA; [1]) was 8.3 nM.

In the case of `COc1ccc(C2(O)OC(=O)C(c3ccc(OC)c(OC)c3)=C2Cc2ccccc2)cc1` (stereo not drawn) [Example 261, 4-Benzyl-3-(3,4-dimethoxyphenyl)-5-hydroxy-5-(4-methoxyphenyl)-5H-furan-2-one], the IC50 (human ETB receptor) is reported as 3900 nM and the IC50 (ETA; [1]) is reported as 160 nM.

With `COc1ccc(C2(O)OC(=O)C(c3cc(OC)cc(OC)c3)=C2Cc2cccc(C(=O)O)c2)cc1` (stereo not drawn) [Example 267, 3-[4-(3,5-Dimethoxyphenyl)-2-hydroxy-2-(4-methoxyphenyl)-5-oxo-2,5-dihydrof uran-3-ylmethyl]benzoic acid] the IC50 (human ETB receptor) was greater than 2500 nM and the IC50 (ETA; [1]) was 710 nM.

Compound `COc1ccc(C2(O)OC(=O)C(c3cc(OC)cc(OC)c3)=C2Cc2ccc(OC)c(C)c2)cc1` (stereo not drawn) [Example 272] has an IC50 (human ETB receptor) of 760 nM and an IC50 (ETA; [1]) of 6.4 nM.

In the case of `COc1ccc(C2(O)OC(=O)C(c3cc(OC)cc(OC)c3)=C2Cc2ccc(Cl)cc2)cc1` (stereo not drawn) [Example 274], the IC50 (human ETB receptor) is reported as greater than 2500 nM and the IC50 (ETA; [2]) is reported as 140 nM.

`COC(=O)c1cccc(CC2=C(c3ccc4c(c3)OCO4)C(=O)OC2(O)c2ccc(OC)cc2)c1` (stereo not drawn) [Example 286, Benzoic acid, 3-[[4-(1,3-benzodioxol-5-yl)-2,5-dihydro-2-hydroxy-2-(4-methoxyphenyl)-5-oxo-3-furanyl]methyl]-, methyl ester] gave an IC50 (human ETB receptor) of 6000 nM and an IC50 (ETA; [1]) of 4.6 nM.

Work on `COC(=O)Cc1ccc(CC2=C(c3ccc4c(c3)OCO4)C(=O)OC2(O)c2ccc(OC)cc2)cc1` (stereo not drawn) [Example 291, {4-[4-Benzo[1,3]dioxol-5-yl-2-hydroxy-2-(4-methoxyphenyl)-5-oxo-2,5-dihydro-furan-3-ylmethyl]-phenyl}-acetic acid methyl ester] yielded an IC50 (human ETB receptor) of 1400 nM and an IC50 (ETA; [1]) of 40 nM.

`COc1ccc(C2(O)OC(=O)C(c3ccc4c(c3)OCO4)=C2Cc2ccc(CC(=O)O)cc2)cc1` (stereo not drawn) [Example 293, {4-[4-Benzo[1,3]dioxol-5-yl-2-hydroxyl-2-(4-methoxy-phenyl)-5-oxo-2,5-dihydro-furan-3-ylmethyl]-phenyl}-acetic acid] gave an IC50 (human ETB receptor) greater than 2500 nM and an IC50 (ETA; [1]) greater than 2500 nM.

With `COC(=O)Cc1cccc(CC2=C(c3ccc4c(c3)OCO4)C(=O)OC2(O)c2ccc(OC)cc2)c1` (stereo not drawn) [Example 294, {3-[4-Benzo[1,3]dioxol-5-yl-2-hydroxy-2-(4-methoxyphenyl)-5-oxo-2,5-dihydro-furan-3-ylmethyl]-phenyl}-acetic acid methyl ester] the IC50 (human ETB receptor) was 780 nM and the IC50 (ETA; [1]) was 3.4 nM.

`COc1ccc(C2(O)OC(=O)C(c3ccc4c(c3)OCO4)=C2Cc2cccc(CC(=O)O)c2)cc1` (stereo not drawn) [Example 295, {3-[4-Benzo[1,3]dioxol-5-yl-2-hydroxy-2-(4-methoxyphenyl)-5-oxo-2,5-dihydro-furan-3-ylmethyl]-phenyl}-acetic acid] gave an IC50 (human ETB receptor) greater than 2500 nM and an IC50 (ETA; [1]) of 130 nM.

In the case of `COc1ccc(C2(O)OC(=O)C(c3ccc4c(c3)OCO4)=C2Cc2cc(C)c(OC)c(C)c2)cc1` (stereo not drawn) [Example 296, 3-Benzo[1,3]dioxol-5-yl-5-hydroxy-4-(4-methoxy-3,5-dimethyl-benzyl)-5-(4-methoxy-phenyl)-5-H-furan-2-one], the IC50 (human ETB receptor) is reported as 580 nM and the IC50 (ETA; [1]) is reported as 6 nM.

`COc1ccc(C2(O)OC(=O)C(c3ccc4c(c3)OCO4)=C2Cc2cc(C)c(OC(C)C)c(C)c2)cc1` (stereo not drawn) [Example 297, 3-Benzo[1,3]dioxol-5-yl-4-(3,5-dimethyl-4-isopropoxybenzyl)-5-hydroxy-5-(4-methoxy-phenyl)-5H-furan-2-one] showed an IC50 (human ETB receptor) of 870 nM and an IC50 (ETA; [1]) of 64 nM.

Compound `CCCCCCCCOc1c(C)cc(CC2=C(c3ccc4c(c3)OCO4)C(=O)OC2(O)c2ccc(OC)cc2)cc1C` (stereo not drawn) [Example 302, 3-Benzo[1,3]dioxol-5-yl-4-(3,5-dimethyl-4-octyloxybenzyl)-5-hydroxy-5-(4-methoxy-phenyl)-5H-furan-2-one] has an IC50 (human ETB receptor) of 2000 nM and an IC50 (ETA; [1]) of 2300 nM.

Compound `COc1ccc(C2(O)OC(=O)C(c3ccc4c(c3)OCO4)=C2Cc2cc(OC)cc(OC)c2)cc1` (stereo not drawn) [Example 303, 3-Benzo[1,3]dioxol-5-yl-4-(3,5-dimethoxy-benzyl)-5-hydroxy-5-(4-methoxy-phenyl)-5H-furan-2-one] has an IC50 (human ETB receptor) of 760 nM and an IC50 (ETA; [1]) of 2.7 nM.

Compound `COc1ccc(C2(O)OC(=O)C(c3ccc4c(c3)OCO4)=C2Cc2ccc(OC)c(OC)c2)cc1` (stereo not drawn) [Example 304, 3-Benzo[1,3]dioxol-5-yl-4-(3,4-dimethoxy-benzyl)-5-hydroxy-5-(4-methoxy-phenyl)-5H-furan-2-one] has an IC50 (human ETB receptor) of 950 nM and an IC50 (ETA; [1]) of 4.8 nM.

For `COc1ccc(C2(O)OC(=O)C(c3ccc4c(c3)OCO4)=C2Cc2cc(OC)c(OC)cc2OC)cc1` (stereo not drawn) [Example 306, 3Benzo[1,3]dioxol-5-yl-5-hydroxy-5-(4-methoxy-phenyl)-4-(2,4,5-trimethoxy-benzyl)-5H-furan-2-one], the IC50 (human ETB receptor) was 850 nM and the IC50 (ETA; [1]) was 2 nM.

`COc1ccc(C2(O)OC(=O)C(c3ccc4c(c3)OCO4)=C2Cc2cc(OC)ccc2OC)cc1` (stereo not drawn) [Example 307, 3-Benzo[1,3]dioxol-5-yl-4-(2,5-dimethoxy-benzyl)-5-hydroxy-5-(4-methoxy-phenyl)-5H-furan-2-one] gave an IC50 (human ETB receptor) of 1000 nM and an IC50 (ETA; [1]) of 5.9 nM.

— patent US5691373A, “Nonpeptide endothelin antagonists I” (Warner-Lambert Company, priority 1995, dated 1997)
